# Reference: patent publication EP2687213B1, “Solid forms comprising (+)-2-[1-(3-ethoxy-4-methoxyphenyl)-2-methylsulfonylethyl]-4-acetylaminoisoindoline-1,3-dione, compositions thereof, and uses thereof” (CELGENE CORPORATION, priority 2008, dated 2009)
# Entries after “also recorded” stand apart in the source; their conditions may differ.
# Columns and labels:
# [1] = Solid form interconversion studies (slurry, XRPD); type: physicochemical; details: EQ in acetone:ethanol (1:1) at 25 °C, at least 2 days
# Method: Interconversion Studies. Interconversion experiments were performed by making slurries of a solid form in a saturated solvent. The slurries were agitated for at least 2 days at about 25 °C. The saturated solution was removed by filtration and the solid was dried in the air.
# [2] = Solid form stability studies (XRPD); type: physicochemical
# Method: Stability Studies. The stabilities of Forms A, B, C and D were studied by exposing the solid samples to the stress condition of 40 °C / 75% RH for four weeks. Moreover, the stabilities of Forms A, B, C and D in different solvents were studied by equilibration in different solvents at 40 °C for four weeks. The slurries then were filtered and dried in the air. Solid samples obtained from the stability experiments were analyzed by XRPD and DSC.
# [3] = Hygroscopicity studies (DVS moisture sorption/desorption); type: physicochemical; details: for solid-state transformation after full adsorption/desorption cycle (XRPD): DVS, 0% to 95% RH and back; for mass change of the starting mass of the sample: RH increased from about 0% to about 95% RH, about 25 °C; for hygroscopicity: moisture sorption analysis, 0% to 95% RH
# Method: Hygroscopicity studies. The hygroscopicity of various solid forms was studied using a Surface Measurement Systems DVS instrument. Typically a sample size of between about 10-50 mg was loaded into the DVS instrument sample pan and the sample was analyzed on a DVS automated sorption analyzer at about 25 °C. The relative humidity was increased in increments of about 10% from about 0% to about 95% RH. The relative humidity was then decreased in a similar manner to accomplish a full adsorption/desorption cycle. The mass was recorded at periodic intervals throughout the experiment.
# [4] = Compression studies (2000 psi, XRPD); details: 2000 psi for at least one minute
# [5] = target: PDE3 from human platelets (Homo sapiens, UniProt Q14432); test: PDE3 enzyme assay; type: biochemical; details: from PDE inhibition data of Table 1
# Sequence of PDE3 from human platelets (Q14432 whole entry): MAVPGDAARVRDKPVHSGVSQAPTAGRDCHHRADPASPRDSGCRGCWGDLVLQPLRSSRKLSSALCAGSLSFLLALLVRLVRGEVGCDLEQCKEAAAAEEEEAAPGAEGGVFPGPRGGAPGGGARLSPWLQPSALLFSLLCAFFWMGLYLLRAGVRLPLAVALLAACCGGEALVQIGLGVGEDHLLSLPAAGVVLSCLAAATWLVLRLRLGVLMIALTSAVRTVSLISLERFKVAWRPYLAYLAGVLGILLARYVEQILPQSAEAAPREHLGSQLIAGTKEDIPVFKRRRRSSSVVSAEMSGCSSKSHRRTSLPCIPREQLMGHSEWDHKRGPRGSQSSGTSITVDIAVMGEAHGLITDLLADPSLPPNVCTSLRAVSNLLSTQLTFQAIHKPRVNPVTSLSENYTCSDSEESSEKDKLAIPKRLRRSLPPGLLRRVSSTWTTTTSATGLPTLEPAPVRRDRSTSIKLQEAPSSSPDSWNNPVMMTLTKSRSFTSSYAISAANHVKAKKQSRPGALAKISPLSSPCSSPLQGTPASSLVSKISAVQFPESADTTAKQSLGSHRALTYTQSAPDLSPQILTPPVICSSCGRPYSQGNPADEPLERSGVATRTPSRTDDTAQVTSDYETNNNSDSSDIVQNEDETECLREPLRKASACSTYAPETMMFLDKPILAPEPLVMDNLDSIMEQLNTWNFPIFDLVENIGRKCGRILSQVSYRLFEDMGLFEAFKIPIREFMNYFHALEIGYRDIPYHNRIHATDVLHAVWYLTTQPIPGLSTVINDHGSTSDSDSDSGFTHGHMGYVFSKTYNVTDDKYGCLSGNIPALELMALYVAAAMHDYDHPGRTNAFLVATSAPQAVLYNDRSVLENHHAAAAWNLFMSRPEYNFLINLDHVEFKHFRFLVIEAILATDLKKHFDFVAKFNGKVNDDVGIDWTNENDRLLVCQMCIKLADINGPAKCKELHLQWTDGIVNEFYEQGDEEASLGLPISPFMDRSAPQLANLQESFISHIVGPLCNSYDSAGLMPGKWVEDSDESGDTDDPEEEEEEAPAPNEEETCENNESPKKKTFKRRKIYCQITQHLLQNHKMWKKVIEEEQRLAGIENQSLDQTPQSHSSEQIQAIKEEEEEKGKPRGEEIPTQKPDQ
# [6] = test system: bovine PDE1; test: PDE1 enzyme assay; type: biochemical; details: from PDE inhibition data of Table 1
# [7] = target: PDE5 from human platelets (Homo sapiens, UniProt O76074); test: PDE5 enzyme assay; type: biochemical; details: from PDE inhibition data of Table 1
# [8] = target: T1, PDE6 from bovine retinal rod outer segments (Bos taurus, UniProt P11541+P23439); test: PDE6 enzyme assay; type: biochemical; details: from PDE inhibition data of Table 1
# T1 construct: PDE6 from bovine retinal rod outer segments; from tissue; host or cells: bovine retinal rod outer segments
# T1 sequence (P11541 2-856 limits assumed): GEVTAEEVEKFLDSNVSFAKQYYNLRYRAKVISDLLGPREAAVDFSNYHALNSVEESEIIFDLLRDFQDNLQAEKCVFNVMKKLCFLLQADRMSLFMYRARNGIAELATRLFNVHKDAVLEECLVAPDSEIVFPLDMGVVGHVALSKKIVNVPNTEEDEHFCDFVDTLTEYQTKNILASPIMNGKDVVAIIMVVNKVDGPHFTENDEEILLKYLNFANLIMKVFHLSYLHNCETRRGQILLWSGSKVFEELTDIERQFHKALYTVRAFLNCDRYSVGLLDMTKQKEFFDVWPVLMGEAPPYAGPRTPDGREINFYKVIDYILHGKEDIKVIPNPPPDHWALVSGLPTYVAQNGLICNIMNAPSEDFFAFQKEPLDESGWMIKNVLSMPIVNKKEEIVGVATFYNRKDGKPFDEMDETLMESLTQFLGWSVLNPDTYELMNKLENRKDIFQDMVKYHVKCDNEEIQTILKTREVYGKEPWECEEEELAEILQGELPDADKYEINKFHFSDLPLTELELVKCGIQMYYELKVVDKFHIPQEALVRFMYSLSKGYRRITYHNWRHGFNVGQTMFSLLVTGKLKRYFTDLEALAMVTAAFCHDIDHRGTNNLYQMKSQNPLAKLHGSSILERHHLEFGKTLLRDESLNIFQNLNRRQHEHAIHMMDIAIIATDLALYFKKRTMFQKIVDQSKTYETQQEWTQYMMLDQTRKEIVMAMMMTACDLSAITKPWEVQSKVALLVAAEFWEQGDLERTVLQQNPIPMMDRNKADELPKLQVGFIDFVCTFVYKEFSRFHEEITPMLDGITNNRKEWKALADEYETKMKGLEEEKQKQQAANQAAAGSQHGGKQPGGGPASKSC
# T1 sequence (P23439 2-850 limits assumed): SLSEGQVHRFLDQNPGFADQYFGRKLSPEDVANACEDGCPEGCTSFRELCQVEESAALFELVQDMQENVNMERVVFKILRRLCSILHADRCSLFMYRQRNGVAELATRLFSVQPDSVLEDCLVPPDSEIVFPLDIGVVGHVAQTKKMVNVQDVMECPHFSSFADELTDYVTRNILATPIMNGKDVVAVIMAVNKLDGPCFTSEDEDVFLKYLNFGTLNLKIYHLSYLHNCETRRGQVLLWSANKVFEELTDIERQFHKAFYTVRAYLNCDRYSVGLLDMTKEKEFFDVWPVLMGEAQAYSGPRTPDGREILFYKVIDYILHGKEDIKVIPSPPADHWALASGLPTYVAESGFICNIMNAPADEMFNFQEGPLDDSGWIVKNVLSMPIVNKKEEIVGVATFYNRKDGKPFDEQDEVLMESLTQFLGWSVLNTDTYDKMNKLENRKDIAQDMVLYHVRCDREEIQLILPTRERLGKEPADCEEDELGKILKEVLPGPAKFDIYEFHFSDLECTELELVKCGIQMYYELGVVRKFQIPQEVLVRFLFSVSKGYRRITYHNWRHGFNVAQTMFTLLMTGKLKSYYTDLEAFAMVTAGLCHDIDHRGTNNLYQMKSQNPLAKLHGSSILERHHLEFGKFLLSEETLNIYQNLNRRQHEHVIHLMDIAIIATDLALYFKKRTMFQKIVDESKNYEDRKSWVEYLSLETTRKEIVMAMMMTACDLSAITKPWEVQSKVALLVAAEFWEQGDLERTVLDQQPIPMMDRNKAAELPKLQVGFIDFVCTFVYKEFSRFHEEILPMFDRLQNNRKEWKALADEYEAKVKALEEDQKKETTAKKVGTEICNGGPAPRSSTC
# [9] = target: human PDE2 (Homo sapiens, UniProt O00408); test: PDE2 enzyme assay; type: biochemical; details: from PDE inhibition data of Table 1
# Sequence of human PDE2 (O00408 whole entry): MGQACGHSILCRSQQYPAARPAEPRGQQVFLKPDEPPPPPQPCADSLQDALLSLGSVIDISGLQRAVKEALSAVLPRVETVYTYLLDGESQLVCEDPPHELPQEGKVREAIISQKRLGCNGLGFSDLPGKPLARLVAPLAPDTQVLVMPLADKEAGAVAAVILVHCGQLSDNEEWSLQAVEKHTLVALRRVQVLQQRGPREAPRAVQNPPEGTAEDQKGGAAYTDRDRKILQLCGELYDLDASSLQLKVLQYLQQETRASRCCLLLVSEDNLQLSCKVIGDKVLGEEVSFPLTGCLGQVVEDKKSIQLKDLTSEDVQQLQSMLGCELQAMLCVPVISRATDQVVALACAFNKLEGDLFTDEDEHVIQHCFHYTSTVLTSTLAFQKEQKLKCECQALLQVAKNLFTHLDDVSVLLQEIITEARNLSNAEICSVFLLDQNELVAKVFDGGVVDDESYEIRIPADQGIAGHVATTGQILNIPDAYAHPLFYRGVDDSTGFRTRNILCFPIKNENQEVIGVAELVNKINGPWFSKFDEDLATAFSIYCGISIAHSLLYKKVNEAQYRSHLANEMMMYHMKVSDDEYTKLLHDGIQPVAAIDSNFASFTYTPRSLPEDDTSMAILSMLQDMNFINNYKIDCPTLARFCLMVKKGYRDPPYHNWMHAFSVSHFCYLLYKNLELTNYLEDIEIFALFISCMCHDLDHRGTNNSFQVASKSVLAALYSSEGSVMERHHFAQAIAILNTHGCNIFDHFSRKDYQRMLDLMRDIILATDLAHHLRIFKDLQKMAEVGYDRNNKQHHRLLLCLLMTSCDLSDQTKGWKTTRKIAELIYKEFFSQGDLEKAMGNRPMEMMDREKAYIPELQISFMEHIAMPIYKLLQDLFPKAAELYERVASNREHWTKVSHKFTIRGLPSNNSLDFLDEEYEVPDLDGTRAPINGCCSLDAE
# [10] = EQ in ethanol at 40 °C for 4 weeks
# [11] = EQ in heptane at 40 °C for 4 weeks
# [12] = EQ in toluene at 40 °C for 4 weeks
# [13] = EQ in water at 40 °C for 4 weeks
Structure (SMILES),Analysis by XRPD (resulting form) [1],"Analysis by XRPD (resulting form) ([2]; 40 °C / 75% RH, 4 weeks)","Analysis by XRPD (resulting form) [2, 10]","Analysis by XRPD (resulting form) [2, 11]","Analysis by XRPD (resulting form) [2, 12]","Analysis by XRPD (resulting form) [2, 13]",solid-state transformation after full adsorption/desorption cycle (XRPD) [3],mass change of the starting mass of the sample [3],hygroscopicity [3],physical stability upon compression (XRPD) [4],PDE Specificity Ratio PDE4/PDE3 [5],PDE Specificity Ratio PDE4/PDE1 [6],PDE Specificity Ratio PDE4/PDE5 [7],PDE Specificity Ratio PDE4/PDE6 [8],PDE Specificity Ratio PDE4/PDE2 [9]
"CCOc1cc(C(CS(C)(=O)=O)N2C(=O)c3cccc(NC(C)=O)c3C2=O)ccc1OC (single isomer, unassigned; (+)) [Form A, (+)-2-[1-(3-ethoxy-4-methoxyphenyl)-2-methylsulfonylethyl]-4-acetylaminoisoindoline-1,3-dione]",Form B,stable,stable,stable,converts to Form C,stable,none of the forms analyzed underwent substantial solid-state transformation,about 0.4%,substantially nonhygroscopic,substantially physically stable,,,,,
"CCOc1cc(C(CS(C)(=O)=O)N2C(=O)c3cccc(NC(C)=O)c3C2=O)ccc1OC (single isomer, unassigned; (+)) [Form B, (+)-2-[1-(3-ethoxy-4-methoxyphenyl)-2-methylsulfonylethyl]-4-acetylaminoisoindoline-1,3-dione]",,stable,stable,stable,converts to Form C,stable,none of the forms analyzed underwent substantial solid-state transformation,about 0.6%,substantially nonhygroscopic,substantially physically stable,,,,,
"CCOc1cc(C(CS(C)(=O)=O)N2C(=O)c3cccc(NC(C)=O)c3C2=O)ccc1OC (single isomer, unassigned; (+)) [Form C, (+)-2-[1-(3-ethoxy-4-methoxyphenyl)-2-methylsulfonylethyl]-4-acetylaminoisoindoline-1,3-dione]",Form C,stable,stable,stable,stable,stable,none of the forms analyzed underwent substantial solid-state transformation,about 0.5%,substantially nonhygroscopic,substantially physically stable,,,,,
"CCOc1cc(C(CS(C)(=O)=O)N2C(=O)c3cccc(NC(C)=O)c3C2=O)ccc1OC (single isomer, unassigned; (+)) [Form D, (+)-2-[1-(3-ethoxy-4-methoxyphenyl)-2-methylsulfonylethyl]-4-acetylaminoisoindoline-1,3-dione]",Form B,stable,converts to Form B,converts to Form B,converts to Form C,converts to Form B,none of the forms analyzed underwent substantial solid-state transformation,about 1.5%,slightly hygroscopic,substantially physically stable,,,,,
"CCOc1cc(C(CS(C)(=O)=O)N2C(=O)c3cccc(NC(C)=O)c3C2=O)ccc1OC (single isomer, unassigned; (+)) [Form E, (+)-2-[1-(3-ethoxy-4-methoxyphenyl)-2-methylsulfonylethyl]-4-acetylaminoisoindoline-1,3-dione]",Form B,,,,,,none of the forms analyzed underwent substantial solid-state transformation,about 5.1%,hygroscopic,,,,,,
"CCOc1cc(C(CS(C)(=O)=O)N2C(=O)c3cccc(NC(C)=O)c3C2=O)ccc1OC (single isomer, unassigned; (+)) [Form F, (+)-2-[1-(3-ethoxy-4-methoxyphenyl)-2-methylsulfonylethyl]-4-acetylaminoisoindoline-1,3-dione]",stable; also recorded: Form F,,,,,,none of the forms analyzed underwent substantial solid-state transformation,about 0.2%,substantially nonhygroscopic,,,,,,
"CCOc1cc(C(CS(C)(=O)=O)N2C(=O)c3cccc(NC(C)=O)c3C2=O)ccc1OC (single isomer, unassigned; (+)) [Form G, (+)-2-[1-(3-ethoxy-4-methoxyphenyl)-2-methylsulfonylethyl]-4-acetylaminoisoindoline-1,3-dione]",converts to Form B,,,,,,none of the forms analyzed underwent substantial solid-state transformation,about 0.4%,substantially nonhygroscopic,,,,,,
CCOc1cc([C@H](CS(C)(=O)=O)N2C(=O)c3cccc(NC(C)=O)c3C2=O)ccc1OC [Compound B],,,,,,,,,,,>45 fold,>50 fold,>39000 fold,>250 fold,>260 fold
